Assay results as given in ChEMBL document CHEMBL1201862, “PubChem BioAssay data set” (2004).
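Following 48 hours of exposure in 96-well plates, responses at five concentrations were used to interpolate endpoints linearly. The concentration for 50% growth inhibition is given as GI50.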 Calls of active or inactive are those of the source. Cut-off read from the data, not from the text of the source: active = GI50 up to about 1.1 µM and inactive = higher.

Assays:
Assay in all cases: DTP human tumour cell line panel, 48 h
[1] = system: Malme-3M
[2] = system: DMS-114
[3] = system: EKVX
[4] = system: A498
[5] = system: A549
[6] = system: KM12
[7] = system: UACC-257
[8] = system: HCT-116
[9] = system: HCC 2998
[10] = system: LOX IMVI
[11] = system: DLD-1
[12] = system: OVCAR-5
[13] = system: XF498
[14] = system: 786-0
[15] = system: HL-60
[16] = system: M19-MEL
[17] = system: OVCAR-3
[18] = system: HOP-18
[19] = system: K562
[20] = system: OVCAR-8
[21] = system: NCI-H522
[22] = system: SF-539
[23] = system: SF-295
[24] = system: M14
[25] = system: TK-10
[26] = system: HOP-62
[27] = system: SK-MEL-2
[28] = system: COLO 205
[29] = system: SNB-19
[30] = system: OVCAR-4
[31] = system: ACHN
[32] = system: NCI-H226
[33] = system: U-251
[34] = system: IGROV-1
[35] = system: DMS-273
[36] = system: SK-MEL-28
[37] = system: NCI-H23
[38] = system: HOP-92
[39] = system: SW-620
[40] = system: MOLT-4
[41] = system: RPMI-8226
[42] = system: HCT-15
[43] = system: SK-OV-3
[44] = system: LXFL 529
[45] = system: KM-20L2
[46] = system: SK-MEL-5
[47] = system: SF-268
[48] = system: SR
[49] = system: SNB-75
[50] = system: NCI-H460
[51] = system: SNB-78
[52] = system: HT-29
[53] = system: CAKI-1
[54] = system: CCRF-CEM
[55] = system: SN12C
[56] = system: MDA-MB-435
[57] = system: RXF 393
[58] = system: UO-31
[59] = system: MCF7
[60] = system: T47D
[61] = system: MDA-N
[62] = system: NCI/ADR-RES
[63] = system: Hs-578T
[64] = system: BT-549
[65] = system: UACC-62
[66] = system: PC-3
[67] = system: DU-145
[68] = system: MDA-MB-231

Measured: GI50

O=C(O)Cc1ccc2c(c1O)C(=O)c1c(ccc(CC(=O)O)c1O)C2=O
> 100 µM: [42]
inactive: [1] > 100 µM | [2] > 100 µM | [3] > 100 µM | [4] > 100 µM | [5] > 100 µM | [6] > 100 µM | [7] > 100 µM | [8] > 100 µM | [9] > 100 µM | [10] > 100 µM | [11] > 100 µM | [12] > 100 µM | [13] > 100 µM | [14] > 100 µM | [15] > 100 µM | [16] > 100 µM | [17] > 100 µM | [18] > 100 µM | [19] > 100 µM | [20] > 100 µM | [21] > 100 µM | [22] > 100 µM | [23] > 100 µM | [24] > 100 µM | [25] > 100 µM | [26] > 100 µM | [27] > 100 µM | [28] > 100 µM | [29] > 100 µM | [30] > 100 µM | [31] > 100 µM | [32] > 100 µM | [33] > 100 µM | [34] > 100 µM | [35] > 100 µM | [36] > 100 µM | [37] > 100 µM | [38] > 100 µM | [39] > 100 µM | [40] > 100 µM | [41] > 100 µM | [43] > 100 µM | [44] > 100 µM | [45] > 100 µM | [46] > 100 µM | [47] > 100 µM | [48] > 100 µM | [49] > 100 µM | [50] > 100 µM | [51] > 100 µM | [52] > 100 µM | [53] > 100 µM | [54] > 100 µM | [55] > 100 µM

O=c1[nH]c(=O)n(C2OC(CO)C(O)C(O)C2O)cc1F (centres undefined)
inactive: [1] > 100 µM | [2] > 100 µM | [3] > 100 µM | [4] > 100 µM | [5] > 100 µM | [6] > 100 µM | [7] > 100 µM | [8] > 100 µM | [56] > 100 µM | [9] > 100 µM | [10] > 100 µM | [11] > 100 µM | [12] > 100 µM | [13] > 100 µM | [14] > 100 µM | [15] > 64.4 µM | [57] > 76.2 µM | [16] > 100 µM | [17] > 100 µM | [18] > 100 µM | [19] > 100 µM | [20] > 100 µM | [58] > 100 µM | [21] > 100 µM | [22] > 100 µM | [23] > 100 µM | [24] > 100 µM | [25] > 100 µM | [26] > 100 µM | [27] > 100 µM | [28] > 100 µM | [29] > 100 µM | [30] > 100 µM | [31] > 100 µM | [32] > 100 µM | [59] > 100 µM | [33] > 100 µM | [34] > 100 µM | [36] > 100 µM | [37] > 100 µM | [60] > 100 µM | [38] > 12.7 µM | [61] > 100 µM | [39] > 100 µM | [62] > 100 µM | [40] > 100 µM | [41] > 100 µM | [43] > 100 µM | [44] > 100 µM | [45] > 100 µM | [63] > 100 µM | [46] > 100 µM | [47] > 100 µM | [64] > 100 µM | [48] > 100 µM | [49] > 88.5 µM | [50] > 100 µM | [51] > 100 µM | [65] > 100 µM | [66] > 100 µM | [67] > 100 µM | [52] > 100 µM | [53] > 100 µM | [68] > 100 µM | [54] > 100 µM | [55] > 100 µM
> 100 µM: [42]

CC[P+]1(CC)CCCC1
inactive: [1] > 100 µM | [2] > 100 µM | [3] > 100 µM | [4] > 10 µM | [5] > 100 µM | [6] > 100 µM | [7] > 100 µM | [9] > 100 µM | [10] > 100 µM | [11] > 100 µM | [12] > 100 µM | [13] > 100 µM | [14] > 100 µM | [57] > 100 µM | [16] > 100 µM | [17] > 100 µM | [18] > 100 µM | [19] > 100 µM | [20] > 100 µM | [58] > 100 µM | [22] > 100 µM | [23] > 100 µM | [24] > 100 µM | [25] > 100 µM | [26] > 100 µM | [27] > 100 µM | [28] > 100 µM | [29] > 100 µM | [30] > 100 µM | [31] > 100 µM | [33] > 100 µM | [34] > 100 µM | [35] > 100 µM | [36] > 100 µM | [37] > 100 µM | [39] > 100 µM | [40] > 100 µM | [41] > 100 µM | [43] > 100 µM | [44] > 100 µM | [45] > 100 µM | [46] > 100 µM | [47] > 100 µM | [49] > 100 µM | [50] > 100 µM | [51] > 100 µM | [65] > 100 µM | [52] > 100 µM | [53] > 100 µM | [54] > 100 µM | [55] > 100 µM
> 100 µM: [42]
